Literature values, collected in publication PMC5799168 (Scientific Reports, 2018).

Target: T1, Ndi1 (Saccharomyces cerevisiae, UniProt P32340)
T1 construct: The mature Ndi1, which lacks a mitochondrial targeting; (His)10; made in house; host or cells: E. coli BL21(DE3)pLysS, plasmid pET16b(NDI1-m)
T1 sequence (P32340 27-513): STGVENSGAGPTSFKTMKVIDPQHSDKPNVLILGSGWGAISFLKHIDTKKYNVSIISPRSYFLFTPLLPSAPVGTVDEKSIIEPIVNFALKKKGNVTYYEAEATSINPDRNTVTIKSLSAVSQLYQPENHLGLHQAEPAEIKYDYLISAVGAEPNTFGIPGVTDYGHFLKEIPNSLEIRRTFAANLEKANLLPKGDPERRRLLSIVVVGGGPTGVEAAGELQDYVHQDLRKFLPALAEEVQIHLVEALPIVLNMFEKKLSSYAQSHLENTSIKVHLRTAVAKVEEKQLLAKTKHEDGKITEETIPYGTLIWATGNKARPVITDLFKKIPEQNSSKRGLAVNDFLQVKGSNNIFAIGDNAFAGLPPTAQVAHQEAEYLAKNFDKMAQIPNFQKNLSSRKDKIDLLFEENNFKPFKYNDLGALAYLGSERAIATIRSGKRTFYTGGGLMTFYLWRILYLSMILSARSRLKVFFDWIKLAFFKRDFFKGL
Design: method as in PMID 17200125
Details: inhibition of Ndi1; cited from earlier work

## CCCCCCCCCCCc1cc(=O)c2ccccc2n1O [AC0-11, 1-hydroxy-2-undecyl-4(1 H) quinolone]
  IC50: 200 nM
